Measurements published in the supplement of paper PMC4862054.

Experiments:
Conditions in all cases: incubation time: 72 h
[1] = tested on: DU-4475; test: drug sensitivity score (DSS), CellTiter-Blue viability (DSS (AUC-based score)); higher = stronger viability inhibition; extreme values may be limits of the assay
Experimental: (§1)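 DSRT with the CellTiter-Blue (resazurin reduction) viability readout, fluorescence 560/590 nm, 72 h incubation. Plates were normalised to DMSO and benzethonium chloride controls. DSS is computed from the area under the fitted dose-response curve (5 or 9 concentrations).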

[2] = tested on: CAL-51; test: as above
Experimental: as §1

[3] = tested on: CAL-120; test: as above
Experimental: as §1

[4] = tested on: CAL-148; test: as above
Experimental: as §1

[5] = tested on: MDA-MB-453; test: as above
Experimental: as §1

[6] = tested on: BT-474; test: as above
Experimental: as §1

[7] = tested on: Hs578T; test: as above
Experimental: as §1

[8] = tested on: MDA-MB-468; test: as above
Experimental: as §1

[9] = tested on: CAL-85-1; test: as above
Experimental: as §1

[10] = tested on: HCC1599; test: as above
Experimental: as §1

[11] = tested on: MDA-MB-231; test: as above
Experimental: as §1

[12] = tested on: HDQ-P1; test: as above
Experimental: as §1

[13] = tested on: MFM-223; test: as above
Experimental: as §1

[14] = tested on: HCC1143; test: as above
Experimental: as §1

[15] = tested on: HCC1937; test: as above
Experimental: as §1

[16] = tested on: DU-4475; test: normalised viability (% of control), CellTiter-Blue; higher = more viable cells (about 100 = DMSO control)
Method in brief: (§2)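 Compound dissolved in 5 µl medium was pre-loaded into 384-well plates, and breast cancer cell lines in 20 µl suspension were seeded on top and incubated 72 h. After adding 2.5 µl CellTiter-Blue reagent for 2 h at 37 °C, fluorescence was read at 560/590 nm. Plates were normalised to vehicle (100) and a positive kill control (0), with Z'-factor quality control. Each value is normalised viability at a single listed concentration from the series.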

[17] = tested on: CAL-120; test: as above
Method in brief: as §2

[18] = tested on: MDA-MB-453; test: as above
Method in brief: as §2

[19] = tested on: BT-474; test: as above
Method in brief: as §2

[20] = tested on: MDA-MB-436; test: as above
Method in brief: as §2

[21] = tested on: Hs578T; test: as above
Method in brief: as §2

[22] = tested on: MDA-MB-468; test: as above
Method in brief: as §2

[23] = tested on: CAL-85-1; test: as above
Method in brief: as §2

[24] = tested on: HCC1599; test: as above
Method in brief: as §2

[25] = tested on: BT-549; test: as above
Method in brief: as §2

[26] = tested on: MDA-MB-231; test: as above
Method in brief: as §2

[27] = tested on: SK-BR-3; test: as above
Method in brief: as §2

[28] = tested on: MFM-223; test: as above
Method in brief: as §2

| SMILES | drug sensitivity score [1] | drug sensitivity score [2] | drug sensitivity score [3] | drug sensitivity score [4] | drug sensitivity score [5] | drug sensitivity score [6] | drug sensitivity score [7] | drug sensitivity score [8] | drug sensitivity score [9] | drug sensitivity score [10] | drug sensitivity score [11] | drug sensitivity score [12] | drug sensitivity score [13] | drug sensitivity score [14] | drug sensitivity score [15] | normalised viability ([16]; 10 nM) [%] | normalised viability ([17]; 100 nM) [%] | normalised viability ([18]; 10 nM) [%] | normalised viability ([19]; 100 nM) [%] | normalised viability ([20]; 100 nM) [%] | further results |
| --- | --- | --- | --- | --- | --- | --- | --- | --- | --- | --- | --- | --- | --- | --- | --- | --- | --- | --- | --- | --- | --- |
| Nc1cc(C(F)(F)F)c(-c2cc(N3CCOCC3)nc(N3CCOCC3)n2)cn1 [BKM-120] | 6.63 | 11.6 | 8.37 | 8.55 | 13.8 | 9.72 | 5.79 | 6.64 | 9.38 | 8.97 | 8.24 | 9.78 | 9.9 | 5.44 | 6.85 | 98.3 | 81.3 | 96 | 115 | 90.2 | normalised viability ([21]; 100 nM): 96.6%; normalised viability ([22]; 100 nM): 99.2%; normalised viability ([23]; 10 nM): 86.6%; normalised viability ([24]; 100 nM): 70.1%; normalised viability ([25]; 100 nM): 96.8%; normalised viability ([26]; 100 nM): 83.6%; normalised viability ([27]; 100 nM): 76.7%; normalised viability ([28]; 100 nM): 84% |
| CN(C)CCOc1ccc(/C(=C(/CCCl)c2ccccc2)c2ccccc2)cc1 [Toremifene] | 0 | 0 | 0 | 0 | 1.86 | 0 | 0 | 2.87 | 0 | 0 | 0 | 0 | 0 | 0 | 0 | 106 | 93.7 | 118 | 126 | 110 | normalised viability ([21]; 100 nM): 85.4%; normalised viability ([22]; 100 nM): 106%; normalised viability ([23]; 10 nM): 100%; normalised viability ([24]; 100 nM): 114%; normalised viability ([25]; 100 nM): 109%; normalised viability ([26]; 100 nM): 94.2%; normalised viability ([27]; 100 nM): 88.8%; normalised viability ([28]; 100 nM): 99.8% |
| O=C(Nc1ccncc1)C(=O)c1cn(Cc2ccc(Cl)cc2)c2ccccc12 [Indibulin] | 7.93 | 10.8 | 22.2 | 2.12 | 18 | 18.3 | 11.3 | 15.3 | 11.8 | 0 | 20.7 | 12.5 | 5.75 | 16.4 | 25.9 | 108 | 36.5 | 84.8 | 41.7 | 73.8 | normalised viability ([21]; 100 nM): 67.7%; normalised viability ([22]; 100 nM): 61.1%; normalised viability ([23]; 10 nM): 106%; normalised viability ([24]; 100 nM): 146%; normalised viability ([25]; 100 nM): 69.9%; normalised viability ([26]; 100 nM): 52%; normalised viability ([27]; 100 nM): 18.9%; normalised viability ([28]; 100 nM): 108% |
| Cc1[nH]c2ccccc2c1CCNCc1ccc(/C=C/C(=O)NO)cc1 [Panobinostat] | 20 | 15 | 22.2 | 22.1 | 27.8 | 17.5 | 17.6 | 11.3 | 18.2 | 16.1 | 16.5 | 14 | 14.6 | 16.3 | 17.9 | – | – | – | – | – | normalised viability ([16]; 1 nM): 115%; normalised viability ([17]; 10 nM): 59.3%; normalised viability ([18]; 1 nM): 110%; normalised viability ([19]; 10 nM): 97.4%; normalised viability ([20]; 10 nM): 96.4%; normalised viability ([21]; 10 nM): 86.8%; normalised viability ([22]; 10 nM): 76.8%; normalised viability ([23]; 1 nM): 99.3%; normalised viability ([24]; 10 nM): 84.7%; normalised viability ([25]; 10 nM): 106%; normalised viability ([26]; 10 nM): 94.6%; normalised viability ([27]; 10 nM): 52.3%; normalised viability ([28]; 10 nM): 101% |
| Cc1cc(Nc2cc(CN3CCOCC3)c3nc(C)c(Cc4ccc(Cl)cc4F)n3n2)n[nH]1 | 4.98 | 6.91 | 8.01 | 0 | 10.2 | 3.02 | 7.69 | 10.3 | 4.09 | 0 | 7.21 | 11.8 | 13.5 | 11.4 | 6.84 | 99.6 | 74.5 | 91.1 | 102 | 108 | normalised viability ([21]; 100 nM): 85.9%; normalised viability ([22]; 100 nM): 103%; normalised viability ([23]; 10 nM): 91.6%; normalised viability ([24]; 100 nM): 122%; normalised viability ([25]; 100 nM): 93.5%; normalised viability ([26]; 100 nM): 102%; normalised viability ([27]; 100 nM): 87.1%; normalised viability ([28]; 100 nM): 67.9% |
| CNC(=O)c1cc(Oc2ccc(NC(=O)Nc3ccc(Cl)c(C(F)(F)F)c3)c(F)c2)ccn1 [Regorafenib] | 3.68 | 3.37 | 1.05 | 0 | 5.4 | 1.39 | 2.98 | 1.71 | 0 | 1.06 | 8.54 | 0 | 9.2 | 9.31 | 3.4 | 104 | 87.7 | 110 | 98.3 | 121 | normalised viability ([21]; 100 nM): 98.4%; normalised viability ([22]; 100 nM): 107%; normalised viability ([23]; 10 nM): 97.1%; normalised viability ([24]; 100 nM): 135%; normalised viability ([25]; 100 nM): 112%; normalised viability ([26]; 100 nM): 75.3%; normalised viability ([27]; 100 nM): 89.3%; normalised viability ([28]; 100 nM): 92.6% |
